Test results from US10150969B2, “Methods and compositions to regulate plant transformation susceptibility” (priority 2010, dated 2018).

Experiments:
[1] = system: Arabidopsis root segments; settings: A. tumefaciens A348 or A281 (no TZS), 1.4 or 14 μM trans-zeatin
Experimental: Neither of these strains harbors TZS. Trans-zeatin concentrations representing the range secreted by nopaline-type A. tumefaciens strains were used.
A. tumefaciens was cultured in Yeast Extract-Peptone medium (Lichtenstein et al., 1986) containing the appropriate antibiotics. Root transformation assays were carried out as previously described by Nam et al. with minor modifications (Tenea et al., 2009). MS basal medium lacking phytohormones was used to select for tumors. GUS activity assays were carried out after infection of root segments with A. tumefaciens At849 (Narasimhulu et al., 1996) for 4-6 d, using X-gluc (Jefferson et al., 1987).
(§1) Roots were infected with bacteria at 10^6 cfu/mL (Col-0) or 10^8 cfu/mL (Bl-1). Following infection, root segments were either transferred to MS basal medium containing 100 μg/mL Timentin and incubated for 4-5 weeks before recording the percentage of root segments developing tumors, or used for RNA isolation.

MTF = settings: Col-0 and Bl-1 root segments treated for two days with trans-zeatin
Experimental: Real-time RT-PCR was carried out using total RNA isolated in triplicate from roots of plants grown in liquid B5 medium. PCR was performed in triplicate on an ABI Prism 7500 Sequence Detection System (Applied Biosystems, Foster City, Calif.). Expression levels were calculated by the relative standard curve method (Applied Biosystems) for all transcripts except ORA59, where the comparative cycle threshold method (Applied Biosystems) was used, and normalized to Actin2 transcript levels.
as §1

[2] = system: Arabidopsis root segments; settings: Col-0 and Bl-1 root segments, 24 h, 1.4 μM trans-zeatin
Experimental: Root segments of Arabidopsis Bl-1 and MTF-RNAi lines were incubated with A. tumefaciens A208 containing pJZ383 (Ptac::GFP). Root segments were co-cultivated with 10^5 cfu/mL (ecotype Columbia) or 10^8 cfu/mL (ecotype Bl-1) for 24 h in B5 minimal medium. Root segments were rinsed and visualized by epifluorescence microscopy.
Agrobacterium attachment assays were conducted as described herein. Col-0 and Bl-1 root segments were co-cultivated with A281 at 10^6 or 10^8 cfu/mL, respectively, for 24 h in the presence or absence of 1.4 μM trans-zeatin.

Arabidopsis roots = settings: kinetin applied during infection; Agrobacterium tzs mutant; Hwang et al., 2010; cited from earlier work

## C/C(=C\CNc1ncnc2nc[nH]c12)CO [trans-zeatin]
[1]; Col-0 roots, percentage of root segments developing tumors
  increase in transformation efficiency: 4-8 fold
[1]; ecotype Bl-1 roots
  increase in susceptibility: 2-3 fold
MTF
  decrease of MTF transcript levels: 30-60%
[2]
  attachment of A. tumefaciens A281: increased attachment

## c1coc(CNc2ncnc3[nH]cnc23)c1 [kinetin]
Arabidopsis roots
  susceptibility of roots to transformation: increased the susceptibility
